# Data reported in paper PMC8041433 (Environmental Health Perspectives, 2021).
# Values joined by “and” are separate entries in the source; they are usually repeats but may differ in a detail not shown here. Identical values can stand only once. Counter-ions that a name gives are not always drawn. Like-named read-outs stand apart in the source and are kept apart here.
# What was measured:
# [1] = target: T1, recombinant human AChE (Homo sapiens, UniProt P22303); experiment: biochemical
# [2] = target: T1, recombinant human AChE
# [3] = target: AChE in SH-SY5Y cells (Homo sapiens, UniProt P22303); experiment: cell-based
# AChE in SH-SY5Y cells, sequence (P22303 32-614): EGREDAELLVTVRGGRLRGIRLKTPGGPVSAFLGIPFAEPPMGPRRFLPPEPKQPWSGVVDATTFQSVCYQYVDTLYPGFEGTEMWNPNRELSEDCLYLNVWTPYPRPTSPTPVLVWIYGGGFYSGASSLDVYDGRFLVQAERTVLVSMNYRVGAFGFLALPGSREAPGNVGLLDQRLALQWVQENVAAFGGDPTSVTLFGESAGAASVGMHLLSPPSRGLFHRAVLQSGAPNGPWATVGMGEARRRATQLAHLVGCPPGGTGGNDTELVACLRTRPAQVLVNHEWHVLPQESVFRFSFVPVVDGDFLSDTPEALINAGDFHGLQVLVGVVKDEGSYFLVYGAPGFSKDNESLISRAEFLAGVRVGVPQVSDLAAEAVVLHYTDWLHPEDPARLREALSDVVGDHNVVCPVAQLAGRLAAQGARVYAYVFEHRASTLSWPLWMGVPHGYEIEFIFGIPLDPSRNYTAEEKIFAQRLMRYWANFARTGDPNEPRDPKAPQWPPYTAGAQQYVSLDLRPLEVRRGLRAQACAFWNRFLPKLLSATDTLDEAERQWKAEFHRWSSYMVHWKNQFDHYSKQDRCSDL
# T1 sequence (P22303 32-614): as above
Compound,AChE inhibition (result in words) [1],CC-v2 (curve classes) [1],Efficacy [1],IC50 ([1]; read-out: IC50),CC-v2 (curve classes) [2],Efficacy [2],CC-v2 (curve classes) [3],IC50 ([3]; read-out: IC50),IC50 [2],IC50 ([1]; IC50 (uM)),IC50 ([3]; IC50 (uM))
"CC1(C)Cc2cccc(O)c2O1 [2,3-Dihydro-2,2-dimethyl-7-benzofuranol, reference compound]",inactive,–,–,–,–,–,–,–,–,–,–
"Nc1ccc(N)c(Cl)c1.O=S(=O)(O)O [2-Chloro-1,4-diaminobenzene sulfate]",–,-1.1,-68.64,8.94 µM,4,-13.066,-1.1 and -2.1,22.4 µM and 20 µM,–,–,–
"CCN1C(=CC=Cc2sc3ccccc3[n+]2CC)Sc2ccccc21.[I-] [3,3'-Diethylthiacarbocyanine iodide]",–,-3,-76.506,19 µM,4,0,-2.1 and -2.2,10.7 µM and 15.1 µM,–,–,–
"Cc1ccc2c(c1)OCC(=O)CO2 [7-Methyl-2H-1,5-benzodioxepin-3(4H)-one]",–,-2.2,-48.628,79.6 µM,4,0,-2.1,35.6 µM and 31.7 µM,–,–,–
C[C@H]1[C@@H]2Cc3ccc(O)cc3[C@@]1(C)CCN2C.C[C@H]1[C@@H]2Cc3ccc(O)cc3[C@@]1(C)CCN2C.O=C(O)/C=C/C(=O)O [(+)-Metazocine fumarate (2:1)],–,-2.1,-92.558,33.9 µM,-2.1,-75.846,-1.1,8.52 µM and 10.7 µM and 15.2 µM,191 µM,–,–
"CC(C)=CCN1CC[C@@]2(C)c3cc(O)ccc3C[C@@H]1[C@@H]2C.O=C(O)CCC(=O)O [(-)-Pentazocine succinate, reference compound]",–,-2.4,–,–,4,0,-2.1,31.2 µM and 35.1 µM and 34.8 µM and 24.7 µM and 31 µM,–,–,–
CNC(=O)O/N=C/C(C)(C)S(C)(=O)=O [Aldoxycarb],–,-1.1 and -2.1,–,–,–,–,-2.1,–,–,–,–
CCCCC(CC)CNC(=N)NC(=N)NCCCCCCNC(=N)NC(=N)NCC(CC)CCCC (stereo not shown) [Alexidine dihydrochloride],–,-1.1,-96.324,–,4,11.253,–,–,–,17.4 µM,43.6 µM
Cl.O=C(c1ccc(F)cc1)C1CCN(CCn2c(=S)[nH]c3ccccc3c2=O)CC1 [Altanserin hydrochloride],–,4,0,–,4,0,-2.1,13.8 µM,–,–,–
N=C(N)NC(=O)c1nc(Cl)c(N)nc1N [Amiloride hydrochloride],–,4,-15.372,–,4,0,-2.1,–,–,–,32.9 µM
Cc1cc(N)c2cc(NC(=O)Nc3ccc4nc(C)cc(N)c4c3)ccc2n1.Cl.Cl [Aminoquinuride dihydrochloride],–,4,-15.256,–,4,0,–,38.9 µM and 30.9 µM,–,–,–
CN1CCCC(n2nc(Cc3ccc(Cl)cc3)c3ccccc3c2=O)CC1 (stereo not shown) [Azelastine hydrochloride],–,-2.2,-73.562,–,4,0,-2.1,–,–,27.5 µM,17.4 µM and 15.5 µM
COP(=S)(OC)SCn1nnc2ccccc2c1=O [Azinphos-methyl],–,–,–,–,4,–,-2.1 and -1.1,–,–,–,–
NC(=O)N=NC(N)=O [Azodicarbonamide],–,–,–,–,4,0,–,–,–,63.3 µM and 71.2 µM,71 µM and 63.5 µM and 71.2 µM and 79.6 µM and 89.6 µM
CCN=C1C=CC(=C(c2ccc(N(CC)CC)cc2)c2ccc(N(CC)CC)cc2)c2ccccc21.Cl [Basic Blue 7],–,-1.1,-96.089,19.9 µM,4,0,-2.1,62.9 µM and 70.6 µM and 79.2 µM,–,–,–
CC(C)C[C@H]1C(=O)N2CCC[C@H]2[C@]2(O)O[C@](NC(=O)[C@@H]3C=C4c5cccc6[nH]c(Br)c(c56)C[C@H]4N(C)C3)(C(C)C)C(=O)N12 [Bromocriptine mesylate],–,-1.1,-70.597,–,4,0,-1.1,–,–,–,5.38 µM and 2.7 µM
CCOP(=S)(OCC)Oc1cc(Cl)c(Br)cc1Cl [Bromophos-ethyl],–,-3,-50.884,–,-1.1,-91.453,–,–,–,–,–
CNC(=O)O/N=C(\C)C(C)S(C)(=O)=O (stereo not shown) [Butoxycarboxim],–,-2.2,-49.747,–,4,0,-2.1,–,–,794 µM,355 µM and 398 µM and 447 µM
Cc1ccc(S(=O)(=O)Oc2ccc(N=Nc3ccc(-c4ccc(N=Nc5c(O)ccc6cc(S(=O)(=O)[O-])cc(S(=O)(=O)[O-])c56)c(C)c4)cc3C)cc2)cc1.[Na+].[Na+] [C.I. Acid Red 114],–,-1.1,–,–,4,22.5 and 26.805,4,–,–,–,–

Compound,AChE inhibition (result in words) [1],CC-v2 (curve classes) [1],Efficacy [1],IC50 ([1]; read-out: IC50),CC-v2 (curve classes) [2],Efficacy [2],CC-v2 (curve classes) [3],IC50 ([3]; read-out: IC50),IC50 [2],IC50 ([1]; IC50 (uM)),IC50 ([3]; IC50 (uM))
Nc1c(/N=N/c2ccc(-c3ccc(/N=N/c4cc(S(=O)(=O)O)c5ccccc5c4N)cc3)cc2)cc(S(=O)(=O)O)c2ccccc12 [C.I. Direct Red 28],–,-1.2,-36.697,–,4,13.368,–,–,–,10 µM,79.6 µM and 71 µM and 89.4 µM
O=C1c2c(O)ccc(Nc3ccc(CCO)cc3)c2C(=O)c2c([N+](=O)[O-])ccc(O)c21 [C.I. Disperse Blue 27],–,-1.2,-62.368,20 µM,4,0,-1.1,8.94 µM and 10 µM,–,–,–
COc1ccc2c(c1OC)CN1CCc3cc4c(cc3[C@@H]1C2)OCO4 [Canadine],–,-1.1,-74.441,–,-3,-45.32,-1.1 and -2.1,–,–,–,8.71 µM and 11 µM and 9.77 µM
CCOP(=O)(OCC)OC(=CCl)c1ccc(Cl)cc1Cl [Chlorfenvinphos],–,-1.1,-95.584,–,-1.1,-96.159,-1.1,–,–,–,–
[H]/N=C(\N/C(=N/[H])NCCCCCCNC(=N)NC(=N)Nc1ccc(Cl)cc1)Nc1ccc(Cl)cc1 [Chlorhexidine dihydrochloride],–,-1.1,-89.988,–,4,14.978,–,–,–,22.9 µM,72.3 µM and 64.4 µM
COP(=S)(OC)Oc1nc(Cl)c(Cl)cc1Cl [Chlorpyrifos-methyl],–,4,0,–,4,0,4 and -2.2,–,–,–,63.3 µM
CCOC(=O)COc1ccc2c(C)c(CCN(CC)CC)c(=O)oc2c1Cl.Cl [Cloricromen hydrochloride],–,-2.1,-70.529,15.5 µM,4,-27.609,-2.1,13.8 µM and 15.5 µM,–,–,–
CNP(=O)(OC)Oc1ccc(C(C)(C)C)cc1Cl (stereo not shown) [Crufomate],–,-2.2,-70.92,–,4,-16.11,-2.1,–,–,79.6 µM,71 µM and 39.9 µM and 63.3 µM
COP(=O)(OC)O/C(C)=C/C(=O)N(C)C [Dicrotophos],–,-2.2,-67.448,–,4,0,-2.1,–,–,63.7 µM,40.2 µM and 31.9 µM
CCCCCCCCCC[N+](C)(CCCCCCCCCC)CCC[Si](OC)(OC)OC.[Cl-] [Disiquonium chloride],–,-3,-65.382,79.6 µM,4,0,4,–,–,–,–
N#Cc1sc2c(=O)c3ccccc3c(=O)c=2sc1C#N [Dithianon],–,4,-13.233,–,4,0,-2.1,–,–,–,44.8 µM and 63.3 µM
CCCCCCCCCCCCc1ccc(S(=O)(=O)O)cc1 [Dodecylbenzenesulfonic acid],–,-2.1 and -1.1,–,63.3 µM and 56.4 µM and 39.9 µM,4,–,–,79.6 µM and 89.4 µM and 71 µM,–,–,–
CN(CCOc1ccc(NS(C)(=O)=O)cc1)CCc1ccc(NS(C)(=O)=O)cc1 [Dofetilide],–,–,-14.56,–,–,0,–,–,–,–,17.4 µM
COc1cc2nc(N3CCN(C(=O)C4COc5ccccc5O4)CC3)nc(N)c2cc1OC (stereo not shown) [Doxazosin mesylate],–,-2.2,-37.943,–,4,0,–,–,–,–,–
COP(N)(=O)SC (stereo not shown) [Methamidophos],–,-2.1,–,–,–,–,-2.1,–,–,–,–
CCOP(=S)(OCC)Oc1cc(C)nc(N(CC)CC)n1 [Pirimiphos-ethyl],did not show effects,4,-15.947,–,4,-16.211,–,–,–,–,–
"CNC(=C[N+](=O)[O-])NCCSCc1ccc(CN(C)C)o1 [Ranitidine, reference compound]",–,–,–,–,–,–,-1.1,–,–,–,–
CCOC(=O)CC(SP(=S)(OC)OC)C(=O)OCC (stereo not shown) [malathion],not identified to inhibit AChE,–,–,–,–,–,–,–,–,–,–
